Series [1] concerns EJ-1 human bladder carcinoma. The settings on record: 100 mg/kg; EJ-1 human bladder carcinoma xenograft in nude mice; cited from earlier work. (In general: Xenograft models place foreign cells or tissue in a host animal.)
Series [2] relates to human colon carcinoma xenografts. Particulars: 100 mg/kg; human colon carcinoma xenografts in nude mice; cited from earlier work.
Series [3] deals with HT1080 human fibrosarcoma. Particulars: 100 mg/kg; HT1080 human fibrosarcoma xenograft in nude mice; cited from earlier work.
Series [4] deals with mammary and salivary carcinomas. The settings on record: daily administration; ras transgenic mice; cited from earlier work.
Series [5] deals with T1, SF9 affinity purified rat FPT (Rattus norvegicus, UniProt Q02293+Q04631).
T1 construct: made in house; host or cells: Sf9 insect cells
Briefly: PFT (farnesyl protein transferase) inhibitory activity, radiolabeled farnesyl pyrophosphate / biotinyl peptide bead assay. The class given is biochemical. Particulars: average of two tests unless n is given in parentheses; read-out: FTase, IC50. On the procedure: The protein:farnesyl transferase (PFT) or farnesyl protein transferase (FPT) inhibitory activity of compounds of the present invention were assayed in HEPES buffer (pH 7.4) containing 5 mM potassium phosphate and 20 μM ZnCl2. The solution also contained 5 mM DTT (dithiothreitol), 5 mM MgCl2, and 0.1% PEG 8000. Assays were performed in 96 well plates (Wallec) and employed solutions composed of varying concentrations of a compound of the present invention in 10% DMSO (dimethylsulfoxide). Upon addition of both substrates, radiolabeled farnesyl pyrophosphate ([1^3H], specific activity 15-30 Ci/mmol, final concentration 134 nM) and (biotinyl)-Ahe-Thr-Lys-Cys-Val-Ile-Met ([3aS[3a alpha, 4 beta, 6a alpha]-hexahydro-2-oxo-1H-thieno[3,4-d]imidazole-5-pentanoic acid]-[7-aminoheptanoic acid]-Thr-Lys-Cys-Val-Ile-Met) (Ahe is 7-aminoheptanoic acid, Thr is threonine, Lys is lysine, Cys is cysteine, Val is valine, Ile is isoleucine, and Met is methionine) (final concentration 0.2 μM), the enzyme reaction was started by addition of SF9 affinity purified rat FPT. After incubation at 30° C. for 30 minutes, the reaction was terminated by diluting the reaction 2.5-fold with a stop buffer containing 1.5 M magnesium acetate, 0.2 M H3PO4, 0.5% BSA (bovine serum albumin), and strepavidin beads (Amersham) at a concentration of 1.3 mg/mL. After allowing the plate to settle for 30 minutes at room temperature, radioactivity was quantitated on a microbeta counter (Model 1450, Wallec). The assay was also carried out without 5 mM potassium phosphate.

Series [6] relates to human lung carcinoma with K-ras mutation and p53 deletion. The settings on record: nude mice; cited from earlier work.

Consider 22 molecules from US6528535B2, “Bicyclic inhibitors of protein farnesyl transferase” (Warner-Lambert Company, priority 1997, dated 2003).

A value given as a limit tells only on which side of the number the result lay.

With `COC(=O)[C@H](CCSC)NC(=O)[C@H](/C=C\[C@@H](/C=C/[C@@H](N)CS)C(C)C)Cc1ccccc1` [Example B1086], the tumor growth entry in series [1], in series [2] and in series [3] was “inhibit tumor growth” each time.

In the case of `CC[C@H](C)[C@@H](CO[C@@H](Cc1ccccc1)C(=O)N[C@@H](CCS(C)(=O)=O)C(=O)OC(C)C)NC[C@@H](N)CS` [L-744,832], in series [4], the tumor regression entry is on record as “caused tumor regression”.

Regarding `O=C1/C(=C/C=C/c2ccccc2)CCc2cc(OCCn3ccnc3)ccc21` [Example 44, (E,E)-6-(2-Imidazol-1-yl-ethoxy)-2-(3-phenyl-allylidene)-3,4-dihydro-2H-naphthalen-1-one], the melting point – broadly, the temperature of the solid-liquid transition – is 198 to 200 °C. Also, the IC50 (commonly the concentration needed to halve the response being measured) in series [5] was 3600 nM.

Molecule `Cc1c(OCCn2ccnc2)ccc2c1CCCC2=O` [Example 47, 6-[2-(1H-1-Imidazolyl)ethoxy]-5-methyl-1,2,3,4-tetrahydro-1-naphthalenone] registered a melting point of 110 to 112 °C. Also, the IC50 in series [5] was 1300 nM.

`CC(COc1ccc2c(c1)CC/C(=C\c1cccs1)C2=O)n1ccnc1` (stereo not shown) [Example 79, 6-[2-(1H-1-Imidazolyl)propoxy]-2-[(E)-1-(2-thienyl)methylidene]-1,2,3,4-tetrahydro-1-naphthalenone]: the melting point lay in the range of 160 to 162 °C. The IC50 in series [5] is 230 nM.

On to `CC(COc1ccc2c(c1)CCCC2=O)n1ccnc1` (stereo not shown) [Example 78, 6-[2-(1H-1-Imidazolyl)propoxy]-1,2,3,4-tetrahydro-1-naphthalenone], for which the melting point was 132 to 135 °C. In addition, the IC50 in series [5] is 2600 nM.

`O=C1C(=Cc2ccncc2)CCc2cc(OCCn3ccnc3)ccc21` [Example 6, 6-(2-Imidazole-1-yl-ethoxy)-2-pyridin-4-ylmethylene-3,4-dihydro-2H-naphthalen-1-one]: the melting point was in the range of 128.5 to 129 °C. Also, the IC50 in series [5] came out at 1260 nM.

The molecule `Cl.O=C1CCCc2cc(OCCCc3c[nH]cn3)ccc21` [Example 43, 6-[3-(1H-Imidazole-4-yl)-propoxy]-3,4-dihydro-2H-naphthalen-1-one, hydrochloride] gave a melting point of 153 to 155 °C. For the same molecule, the IC50 in series [5] amounted to 4400 nM.

Turning to `CSCC[C@H](NC(=O)c1ccc(NC[C@@H](N)CS)cc1-c1ccccc1)C(=O)O` [FTI276], the tumor growth result in series [6] is recorded as “selectively block tumor growth”.

With `O=C1C(=Cc2ccccc2)CCc2cc(OCCc3c[nH]cn3)ccc21` [Example 30, 2-Benzylidene-6-[2-(1H-imidazole-4-yl)-ethoxy]-3,4-dihydro-2H-naphthalen-1-one], the melting point lay within 53 to 56 °C. Besides, in series [5], the IC50 is 890 nM.

In turn, `O=C1C(=Cc2ccc(Cl)s2)CCc2cc(OCCn3ccnc3)ccc21` [Example 18, 2-(5-Chloro-thiophen-2-ylmethylene)-6-(2-imidazole-1-yl-ethoxy)-3,4-dihydro-2H-naphthalen-1-one] showed a melting point of 143 to 144 °C. Further, the IC50 in series [5] is 320 nM.

For `CSc1ccc(C=C2CCc3cc(OCCc4c[nH]cn4)ccc3C2=O)cc1` [Example 31, 6-[2-(1H-Imidazole-4-yl)-ethoxy]-2-(4-methylsulfanyl-benzylidene)-3,4-dihydro-2H-naphthalen-1-one], the melting point lay within 65 to 70 °C. In addition, the IC50 in series [5] amounted to 590 nM.

For `O=C1C(=Cc2cccs2)CCc2cc(OCCc3c[nH]cn3)ccc21` [Example 29, 6-[2-(1H-Imidazole-4-yl)-ethoxy]-2-thiophen-2-ylmethylene-3,4-dihydro-2H-naphthalen-1-one], the melting point is 60 to 63 °C. For the same molecule, in series [5], the IC50 came out at 88 nM.

In turn, `O=C1C(=Cc2cccs2)CCc2cc(OCCn3ccnc3)ccc21` [Example 14, 6-(2-Imidazole-1-yl-ethoxy)-2-thiophen-2-ylmethylene-3,4-dihydro-2H-naphthalen-1-one] showed a melting point of 137 to 138 °C. Moreover, in series [5], the IC50 was determined as 89 nM.

For `O=C1C(=Cc2ccc([N+](=O)[O-])s2)CCc2cc(OCCn3ccnc3)ccc21` [Example 22, 6-(2-Imidazole-1-yl-ethoxy)-2-(5-nitro-thiophen-2-ylmethylene)-3,4-dihydro-2H-naphthalen-1-one], the melting point was > 240 °C. For the same molecule, the IC50 in series [5] turned out to be 370 nM.

Regarding `O=C1C(=Cc2ccc(-c3cccs3)s2)CCc2cc(OCCn3ccnc3)ccc21` [Example 21, 2-[2,2′]Bithiophenyl-5-ylmethylene-6-(2-imidazole-1-yl-ethoxy)-3,4-dihydro-2H-naphthalen-1-one], the melting point fell in the range of 180 to 181 °C. Further, the IC50 in series [5] is 2800 nM.

On to `O=C1C(=Cc2cccc3ccccc23)CCc2cc(OCCn3ccnc3)ccc21` [Example 15, 6-(2-Imidazole-1-yl-ethoxy)-2-naphthalen-1-ylmethylene-3,4-dihydro-2H-naphthalen-1-one], for which the melting point lay within 147 to 148 °C. Besides, the IC50 in series [5] worked out at 1300 nM.

`O=C1C(=Cc2sccc2Oc2ccccc2)CCc2cc(OCCn3ccnc3)ccc21` [Example 20, 6-(2-Imidazole-1-yl-ethoxy)-2-(3-phenoxy-thiophen-2-ylmethylene)-3,4-dihydro-2H-naphthalen-1-one] yielded a melting point of 135 to 137 °C. In addition, the IC50 in series [5] was determined as 3100 nM.

`Cc1c(OCCn2ccnc2)ccc2c1CC/C(=C\c1cccs1)C2=O` [Example 48, 6-[2-(1H-1-Imidazolyl)ethoxy]-5-methyl-2-[(E)-1-(2-thienyl)methylidene]-1,2,3,4-tetrahydro-1-naphthalenone]: the melting point was 182 to 184 °C. Moreover, in series [5], the IC50 was 400 nM.

Take `O=C1CC(c2ccccc2)Oc2cc(OCCn3ccnc3)ccc21` (stereo not shown) [Example 76, 7-[2-(1H-1-Imidazolyl)ethoxy]-2-phenyl-4-chromanone]: the melting point was 139 to 140 °C. Also, the IC50 in series [5] came out at 120 nM.

For the molecule `COc1ccc(C=C2CCc3cc(OCCn4ccnc4)ccc3C2=O)cc1` [Example 24, 6-(2-Imidazole-1-yl-ethoxy)-2-(4-methoxy-benzylidene)-3,4-dihydro-2H-naphthalen-1-one], the melting point lay in the range of 132 to 133 °C. Also, the IC50 in series [5] was found to be 880 nM.

`O=C1C(=Cc2ccc([N+](=O)[O-])cc2)CCc2cc(OCCn3ccnc3)ccc21` [Example 7, 6-(2-Imidazole-1-yl-ethoxy)-2-(4-nitro-benzylidene)-3,4-dihydro-2H-naphthalen-1-one] showed a melting point of 184 to 185 °C. In addition, in series [5], the IC50 stood at 1700 nM.
